Laboratory results reported in US7659394B2 (Pfizer Inc, priority 2004, dated 2010).
Read-outs that look alike come from different tables or passages of the source.

Tests used:
[1] = molecular target: T1, human norepinephrine transporter (Homo sapiens, UniProt P23975); test: hNET receptor binding ([125I]-RTI-55 radioligand binding); conditions: membranes of HEK-293 cells transfected with human norepinephrine transporter, IC50 converted to Ki by Cheng-Prusoff
T1 construct: host or cells: HEK-293
From the text: (§1) The ability of the compounds of this invention to bind to the hNET and serotonin SERT receptor can be determined using conventional radiolig and receptor binding assays. The receptors can be heterologously expressed in cell lines and experiments conducted in membrane preparations from the cell lines using procedures outlined below. IC50 concentrations can be determined by nonlinear regression of concentration-dependent reduction in specific binding. The Cheng-Prussoff equation can be used to convert the IC50 to Ki concentrations.
Cell pastes of HEK-293 cells transfected with the human norepinephrine transporter were supplied by the Pfizer Ann Arbor Protein Expression and Production group. […] Aliquots of membranes (5 mg/ml protein) were stored in liquid nitrogen until used.
(§2) The reaction was incubated by gentle agitation for 90 min at room temperature and was terminated by filtration through Whatman GF/C filter plates using a Brandel 96-well plate harvester. […] Test compounds were run in duplicate, and specific binding was defined as the difference between binding in the presence and absence of 10 μM desipramine.
(§3) Excel and GraphPad Prism software were used for data calculation and analysis. IC50 values were converted to Ki values using the Cheng-Prusoff equation.

[2] = molecular target: T2, human seritonin transporter (Homo sapiens, UniProt P31645); test: hSERT receptor binding ([125I]-RTI-55 radioligand binding); conditions: membranes of HEK-293 cells transfected with human seritonin transporter, IC50 converted to Ki by Cheng-Prusoff, read-out: SERT (Ki)
T2 construct: host or cells: HEK-293
From the text: as §1
Cell pastes of HEK-293 cells transfected with the human seritonin transporter were supplied by the Pfizer Ann Arbor Protein Expression and Production group. […] Aliquots of membranes (5 mg/ml protein) were stored in liquid nitrogen until used.
as §2, with “[…] citalopram.” for “μM desipramine.”
as §3

T1 sequence (P23975 whole entry): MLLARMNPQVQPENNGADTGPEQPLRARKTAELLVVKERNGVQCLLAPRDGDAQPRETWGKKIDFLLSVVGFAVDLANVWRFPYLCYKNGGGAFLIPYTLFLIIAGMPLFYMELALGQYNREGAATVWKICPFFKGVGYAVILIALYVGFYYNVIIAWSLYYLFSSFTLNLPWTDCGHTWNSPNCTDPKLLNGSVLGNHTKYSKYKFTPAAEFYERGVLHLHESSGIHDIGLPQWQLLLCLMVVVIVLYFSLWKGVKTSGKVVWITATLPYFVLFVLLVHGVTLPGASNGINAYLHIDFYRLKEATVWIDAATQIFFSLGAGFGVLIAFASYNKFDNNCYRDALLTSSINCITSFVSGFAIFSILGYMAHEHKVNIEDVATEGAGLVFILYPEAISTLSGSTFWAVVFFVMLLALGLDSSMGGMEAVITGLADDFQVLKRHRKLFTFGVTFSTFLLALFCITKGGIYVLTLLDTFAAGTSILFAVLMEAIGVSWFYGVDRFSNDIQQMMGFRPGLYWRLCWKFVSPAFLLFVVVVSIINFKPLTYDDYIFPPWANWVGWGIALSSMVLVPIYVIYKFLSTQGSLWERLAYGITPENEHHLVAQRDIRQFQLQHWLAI
T2 sequence (P31645 whole entry): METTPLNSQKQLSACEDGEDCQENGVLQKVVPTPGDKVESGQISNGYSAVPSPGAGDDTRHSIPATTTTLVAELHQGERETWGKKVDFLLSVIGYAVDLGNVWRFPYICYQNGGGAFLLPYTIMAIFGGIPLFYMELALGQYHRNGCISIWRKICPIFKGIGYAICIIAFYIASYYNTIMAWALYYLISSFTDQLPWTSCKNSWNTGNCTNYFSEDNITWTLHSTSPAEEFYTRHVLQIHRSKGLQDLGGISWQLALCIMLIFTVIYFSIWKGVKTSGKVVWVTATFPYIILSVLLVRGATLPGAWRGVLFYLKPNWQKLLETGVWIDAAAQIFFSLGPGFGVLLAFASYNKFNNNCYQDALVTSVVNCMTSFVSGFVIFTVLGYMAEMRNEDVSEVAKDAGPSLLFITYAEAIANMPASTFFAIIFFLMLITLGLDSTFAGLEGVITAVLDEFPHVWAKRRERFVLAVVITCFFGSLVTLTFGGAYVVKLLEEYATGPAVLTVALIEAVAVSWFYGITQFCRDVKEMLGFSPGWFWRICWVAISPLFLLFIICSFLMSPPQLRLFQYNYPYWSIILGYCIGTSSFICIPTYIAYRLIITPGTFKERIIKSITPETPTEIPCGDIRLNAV

Structure (SMILES)	Ki ([1]; read-out: hNET (Ki)) [nM]	Ki [2] [nM]	Ki ([1]; hNET (Ki)) [nM]
c1ccc(Oc2ccccc2O[C@@H](c2ccccc2)[C@@H]2CNCCO2)cc1 [Example 14, (S)-2-[(S)-(2-Phenoxy-phenoxy)-phenyl-methyl]-morpholine]	61	≥ 10000	–
CCOC(=O)c1ccccc1O[C@@H](c1ccccc1)[C@@H]1CNCCO1 [Example 15, (2S,3S)-2-(Morpholin-2-yl-phenyl-methoxy)-benzoic acid ethyl ester]	15	3770	–
Clc1ccc(-c2ccccc2O[C@@H](c2ccccc2)[C@@H]2CNCCO2)cc1 [Example 16, (S)-2-[((S)-4′-Chloro-biphenyl-2-yloxy)-phenyl-methyl]-morpholine]	99	4500	–
Fc1ccccc1O[C@@H](c1ccccc1)[C@H]1CNCCO1 [Example 18, (R)-2-[(S)-(2-Fluoro-phenoxy)-phenyl-methyl]-morpholine]	133	72	–
CCOc1ccccc1O[C@H](c1ccccn1)[C@@H]1CNCCO1 [Example 20, (S)-2-[(R)-(2-Ethoxy-phenoxy)-pyridin-2-yl-methyl]-morpholine]	593	≥ 10000	–
CCOc1ccccc1O[C@@H](c1ccccn1)[C@@H]1CNCCO1 [Example 21, (S)-2-[(S)-(2-Ethoxy-phenoxy)-pyridin-2-yl-methyl]-morpholine]	6.8	2500	–
N#Cc1ccccc1OC(c1cccnc1)[C@@H]1CNCCO1 (stereo partly drawn) [Example 24, (2S,3R)-2-(Morpholin-2-yl-pyridin-3-yl-methoxy)-benzonitrile]	210	7720	–
FC(F)(F)Oc1ccccc1O[C@@H](c1cccnc1)[C@H]1CNCCO1 [Example 26, (R)-2-[(S)-Pyridin-3-yl-(2-trifluoromethoxy-phenoxy)-methyl]-morpholine]	359	2440	–
Fc1ccc(O[C@H](c2ccccn2)[C@H]2CNCCO2)c(F)c1 [Example 27]	7900	412	–
Fc1ccc(O[C@@H](c2ccccn2)[C@H]2CNCCO2)c(F)c1 [Example 28]	8410	1410	–
[O-][n+]1ccccc1O[C@@H](c1ccccc1)[C@@H]1CNCCO1 [Example 29, (S)-2-[((S)-1-Oxy-pyridin-2-yloxy)-phenyl-methyl]-morpholine]	154	≥ 10000	–
Clc1ccccc1-c1ccccc1O[C@@H](c1ccccc1)[C@@H]1CNCCO1 [Example 30, (S)-2-[(S)-(2′-Chloro-biphenyl-2-yloxy)-phenyl-methyl]-morpholine]	41	≥ 10000	–
Fc1ccc(Oc2ncccc2OC[C@@H]2CNCCO2)cc1 [Example 32, (S)-2-[2-(4-Fluoro-phenoxy)-pyridin-3-yloxymethyl]-morpholine]	36	≥ 10000	–
Fc1ccc(-c2ncccc2O[C@@H](c2ccccc2)[C@@H]2CNCCO2)cc1 [Example 33, (S)-2-{(S)-[2-(4-Fluoro-phenyl)-pyridin-3-yloxy]-phenyl-methyl}-morpholine]	22	2410	–
Fc1ccc([C@H](Oc2ccccc2F)[C@H]2CNCCO2)cc1 [Example 34, (R)-2-[(S)-(2-Fluoro-phenoxy)-(4-fluoro-phenyl)-methyl]-morpholine]	141	184	–
CCOc1ccccc1OC(c1ccc(F)cc1)[C@H]1CNCCO1 (some centres unmarked) [Example 35]	11	605	–
Fc1cccc(F)c1O[C@@H](c1ccccc1)[C@@H]1CNCCO1 [Example 36, (S)-2-[(S)-(2,6-Difluoro-phenoxy)-phenyl-methyl]-morpholine]	3.7	471	–
CCOc1ccccc1OC(CC1CCCCC1)[C@@H]1CNCCO1 (stereo partly drawn) [Example 37, (S)-2-[(S)-2-Cyclohexyl-1-(2-ethoxy-phenoxy)-ethyl]-morpholine and (2S,3-R)-2-[2-Cyclohexyl-1-(2-ethoxy-phenoxy)-ethyl]-morpholine]	12	163	–
CCOc1ccccc1O[C@@H](CC(C)C)[C@@H]1CNCCO1 [Example 38, (S)-2-[(S)-1-(2-Ethoxy-phenoxy)-3-methyl-butyl]-morpholine]	517	4100	–
C=CCc1ccccc1O[C@@H](c1ccccc1)[C@@H]1CNCCO1 [Example 39, (S)-2-[(S)-(2-Allyl-phenoxy)-phenyl-methyl]-morpholine]	3.7	475	–

Structure (SMILES)	Ki ([1]; read-out: hNET (Ki)) [nM]	Ki [2] [nM]	Ki ([1]; hNET (Ki)) [nM]
c1ccc([C@H](Oc2cccnc2)[C@@H]2CNCCO2)cc1 [Example 40, (S)-2-[(S)-Phenyl-(pyridin-3-yloxy)-methyl]-morpholine]	317	828	–
Brc1ncccc1O[C@@H](c1ccccc1)[C@@H]1CNCCO1 [Example 41, (S)-2-[(S)-(2-Bromo-pyridin-3-yloxy)-phenyl-methyl]-morpholine]	17	17	–
Cc1ccc(-c2ncccc2O[C@@H](c2ccccc2)[C@@H]2CNCCO2)cc1 [Example 42, (S)-2-[(S)-Phenyl-(2-p-tolyl-pyridin-3-yloxy)-methyl]-morpholine]	68	4940	–
CC(C)c1ccccc1O[C@@H](c1ccccc1)[C@@H]1CNCCO1 [Example 44, (S)-2-[(S)-(2-Isopropyl-phenoxy)-phenyl-methyl]-morpholine]	5.3	1360	–
CC(C)Oc1ccccc1O[C@@H](c1ccccc1)[C@@H]1CNCCO1 [Example 46, (S)-2-[(S)-(2-Isopropoxy-phenoxy)-phenyl-methyl]-morpholine]	6.5	5630	–
Fc1ccc([C@H](Oc2ccccc2Br)[C@H]2CNCCO2)cc1 [Example 47, (R)-2-[(S)-(2-Bromo-phenoxy)-(4-fluoro-phenyl)-methyl]-morpholine]	8.4	52	–
c1ccc([C@H](Oc2ccc3occc3c2)[C@@H]2CNCCO2)cc1 [Example 48, (S)-2-[(S)-(Benzofuran-5-yloxy)-phenyl-methyl]-morpholine]	31	10	–
Cc1ccccc1O[C@@H](c1ccccc1)[C@@H]1CNCCO1 [Example 49, (S)-2-((S)-Phenyl-o-tolyloxy-methyl)-morpholine]	8.9	729	–
CCOc1ccccc1O[C@@H](C1CCCCC1)[C@@H]1CNCCO1 [Example 51, (S)-2-[(S)-Cyclohexyl-(2-ethoxy-phenoxy)-methyl]-morpholine]	16	≥ 10000	–
c1ccc([C@H](Oc2ccccc2N2CCNCC2)[C@@H]2CNCCO2)cc1 [Example 52, (S)-2-[(S)-Phenyl-(2-piperazin-1-yl-phenoxy)-methyl]-morpholine]	–	1350	1620
CSc1ccccc1O[C@@H](c1ccccc1)[C@@H]1CNCCO1 [Example 53, (S)-2-[(S)-(2-Methylsulfanyl-phenoxy)-phenyl-methyl]-morpholine]	5.9	259	–
CS(=O)(=O)c1ccccc1O[C@@H](c1ccccc1)[C@@H]1CNCCO1 [Example 54, (S)-2-[(S)-(2-Methanesulfonyl-phenoxy)-phenyl-methyl]-morpholine]	1310	≥ 10000	–
c1ccc([C@H](Oc2ccccc2C2CCCC2)[C@@H]2CNCCO2)cc1 [Example 55, (S)-2-[(S)-(2-Cyclopentyl-phenoxy)-phenyl-methyl]-morpholine]	12	2240	–
c1ccc([C@H](Oc2ccccc2C2CCCCC2)[C@@H]2CNCCO2)cc1 [Example 56, (S)-2-[(S)-(2-Cyclohexyl-phenoxy)-phenyl-methyl]-morpholine]	41	2460	–
FC(F)Oc1ccccc1O[C@@H](c1ccccc1)[C@@H]1CNCCO1 [Example 57, (S)-2-[(S)-(2-Difluoromethoxy-phenoxy)-phenyl-methyl]-morpholine]	24	94	–
FCCOc1ccccc1O[C@@H](c1ccccc1)[C@@H]1CNCCO1 [Example 58, (S)-2-{(S)-[2-(2-Fluoro-ethoxy)-phenoxy]-phenyl-methyl}-morpholine]	7.4	965	–
CC(C)Cc1cc(F)ccc1O[C@@H](c1ccccc1)[C@@H]1CNCCO1 [Example 59, (S)-2-[(S)-(4-Fluoro-2-isobutyl-phenoxy)-phenyl-methyl]-morpholine]	61	206	–
Fc1cccc(Cl)c1O[C@@H](c1ccccc1)[C@@H]1CNCCO1 [Example 60]	14	78	–
c1ccc([C@H](Oc2ccccc2CC2CC2)[C@@H]2CNCCO2)cc1 [Example 61, (S)-2-[(S)-(2-Cyclopropylmethyl-phenoxy)-phenyl-methyl]-morpholine]	68	6600	–
Clc1cccc(Cl)c1O[C@@H](c1ccccc1)[C@@H]1CNCCO1 [Example 62, (S)-2-[(S)-(2,6-Dichloro-phenoxy)-phenyl-methyl]-morpholine]	12	65	–
